{"source": "patent US20250195680A1", "about": "“CANCER TREATMENT WITH ANTI-CLAUDIN 18.2 ADC” (priority 2023, published 2025)", "origin": "cited, not measured here", "tested_on": "gastric cancer", "details": "combined with CAPOX or mFOLFOX6 vs chemotherapy alone", "data": [{"substance": "zolbetuximab: anti-CLDN18.2 monoclonal antibody", "values": [{"measurement": "efficacy in treating gastric cancer", "value": "effective in treating gastric cancer"}]}]}
